Experimental data: US20250034135A1, “ANTI-APOPTOTIC PROTEIN BCL-2 INHIBITOR, PHARMACEUTICAL COMPOSITION AND USES THEREOF” (HANGZHOU HEALZEN THERAPEUTICS CO., LTD., priority 2021, published 2025)

Molecular target: BCL2 (Homo sapiens (Human), UniProt P10415)
Test: Molecular level activity test of anti-apoptotic protein BCL2 (HTRF, binding to Bim peptide)
Conditions: HTRF, binding of BCL2 to Bim peptide; read-out: BCL2 nM (inhibitory activity, IC50)
In short: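 HTRF binding of His-tagged recombinant BCL2 to biotin-tagged Bim peptide, compound in 2% DMSO. After 1 h reaction, anti-His and streptavidin-XL665 detection reagents were added and incubated 4 h at room temperature before reading.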

Sequence of BCL2 (P10415 whole entry): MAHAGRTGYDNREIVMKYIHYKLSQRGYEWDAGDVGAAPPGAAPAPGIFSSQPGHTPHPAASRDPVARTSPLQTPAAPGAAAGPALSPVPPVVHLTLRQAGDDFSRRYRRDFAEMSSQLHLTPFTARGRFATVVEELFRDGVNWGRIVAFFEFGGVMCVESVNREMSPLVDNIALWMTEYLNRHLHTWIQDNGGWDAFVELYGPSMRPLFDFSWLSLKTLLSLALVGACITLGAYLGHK

IC50 [nM] | SMILES
< 10 | COc1ccc(CN2CCN(C3CC4(CCN(c5ccc(C(=O)NS(=O)(=O)c6cc([N+](=O)[O-])c(NC[C@H]7CC[C@](C)(O)CC7)c7c6OCO7)c(Oc6cnc7[nH]ccc7c6)c5)CC4)C3)[C@H](c3ccccc3C(C)C)C2)cn1 [compound 174, 2-((1H-pyrrolo[2,3-b]pyrid-5-yl)oxy)-N-((7-((((1r, 4r)-4-hydroxy-4-methylcyclohexyl)methyl)amino)-6-nitrobenzo[d][1,3]dioxocyclopent-4-yl)sulfonyl)-4-(2-((R)-2-(2-isopropylphenyl)-4-((6-methoxypyrid-3-yl)methyl)piperazin-1-yl)-7-azaspiro[3.5]non-7-yl)benzamide]
< 10 | CC(C)c1ccccc1[C@@H]1CCCN1C1CC2(CCN(c3cc(Oc4cnc5[nH]ccc5c4)c(C(=O)NS(=O)(=O)c4cc([N+](=O)[O-])c(NC[C@H]5CC[C@](C)(O)CC5)c5c4CCO5)cc3F)CC2)C1 [compound 100, 2-((1H-pyrrolo[2,3-b]pyrid-5-yl)oxy)-5-fluoro-N-((7-((((1r, 4r)-4-hydroxy-4-methylcyclohexyl)methyl)amino)-6-nitro-2,3-dihydrobenzofuran-4-yl)sulfonyl)-4-(2-((S)-2-(2-isopropylphenyl)pyrrolidin-1-yl)-7-azaspiro[3.5]non-7-yl)benzamide]
< 10 | CC(C)c1ccccc1[C@@H]1CN(Cc2ccc(C#N)cc2)CCN1C1CC2(CCN(c3cc(Oc4cnc5[nH]ccc5c4)c(C(=O)NS(=O)(=O)c4ccc(NC[C@H]5CC[C@](C)(O)CC5)c([N+](=O)[O-])c4)cc3F)CC2)C1 [compound 214, 2-((1H-pyrrolo[2,3-b]pyrid-5-yl)oxy)-4-(2-((R)-4-(4-cyanobenzyl)-2-(2-isopropylphenyl)piperazin-1-yl)-7-azaspiro[3.5]non-7-yl)-5-fluoro-N-((4-((((1r, 4r)-4-hydroxy-4-methylcyclohexyl)methyl)amino)-3-nitrophenyl)sulfonyl)benzamide]
< 10 | COc1ccc(CN2CCN(C3CC4(CCN(c5cc(Oc6cnc7[nH]ccc7c6)c(C(=O)NS(=O)(=O)c6cc([N+](=O)[O-])c(NC[C@H]7COCCO7)c7c6OCO7)cc5F)CC4)C3)[C@H](c3ccccc3C(C)C)C2)cc1 [compound 123]
< 10 | COc1ccc(CN2CCN(C3CC4(CCN(c5cc(Oc6cnc7[nH]ccc7c6)c(C(=O)NS(=O)(=O)c6ccc(NC[C@H]7CC[C@](C)(O)CC7)c([N+](=O)[O-])c6)cc5F)CC4)C3)C(c3ccccc3C(C)C)C2)cc1 (stereo partly drawn) [compound 055, 2-((1H-pyrrolo[2,3-b]pyrid-5-yl)oxy)-5-fluoro-N-((4-((((1r,4r)-4-hydroxy-4-methylcyclohexyl)methyl)amino)-3-nitrophenyl)sulfonyl)-4-(2-(2-(2-isopropylphenyl)-4-(4-methoxybenzyl)piperazin-1-yl)-7-azaspiro[3.5]non-7-yl)benzamide]
< 10 | CC(C)c1ccccc1[C@@H]1CCCN1C1CC2(CCN(c3cc(Oc4cnc5[nH]ccc5c4)c(C(=O)NS(=O)(=O)c4cc([N+](=O)[O-])c(NCC5(F)CCOCC5)c5scnc45)cc3F)CC2)C1 [compound 104, (S)-2-((1H-pyrrolo[2,3-b]pyrid-5-yl)oxy)-5-fluoro-N-((7-(((4-fluorotetrahydro-2H-pyran-4-yl)methyl)amino)-6-nitrobenzo[d]thiazol-4-yl)sulfonyl)-4-(2-(2-(2-isopropylphenyl)pyrrolidin-1-yl)-7-azaspiro[3.5]non-7-yl)benzamide]
< 10 | CC(C)c1ccccc1[C@@H]1CCCN1C1CC2(CCN(c3ccc(C(=O)NS(=O)(=O)c4cc([N+](=O)[O-])c(NCC5(F)CCOCC5)c5c4OCO5)c(Oc4cnc5[nH]ccc5c4)c3)CC2)C1 [compound 159, (S)-2-((1H-pyrrolo[2,3-b]pyrid-5-yl)oxy)-N-((7-(((4-fluorotetrahydro-2H-pyran-4-yl)methyl)amino)-6-nitrobenzo[d][1,3]dioxocyclopent-4-yl)sulfonyl)-4-(2-(2-(2-isopropylphenyl)pyrrolidin-1-yl)-7-azaspiro[3.5]non-7-yl)benzamide]
< 10 | CC(C)c1ccccc1[C@@H]1CN(Cc2cccc3c2OCCO3)CCN1C1CC2(CCN(c3cc(Oc4cnc5[nH]ccc5c4)c(C(=O)NS(=O)(=O)c4ccc(NCC5(F)CCOCC5)c([N+](=O)[O-])c4)cc3F)CC2)C1 [compound 208, (R)-2-((1H-pyrrolo[2,3-b]pyrid-5-yl)oxy)-4-(2-(4-((2,3-dihydrobenzo[b][1,4]dioxan-5-yl)methyl)-2-(2-isopropylphenyl)piperazin-1-yl)-7-azaspiro[3.5]non-7-yl)-5-fluoro-N-((4-(((4-fluorotetrahydro-2H-pyran-4-yl)methyl)amino)-3-nitrophenyl)sulfonyl)benzamide]
< 10 | CC(C)c1ccccc1[C@@H]1CCCN1C1CC2(CCN(c3cc(Oc4cnc5[nH]ccc5c4)c(C(=O)NS(=O)(=O)c4cc([N+](=O)[O-])c(NCC5(F)CCN(CC(F)(F)F)CC5)c5[nH]cnc45)cc3F)CC2)C1 [compound 032, (S)-2-((1H-pyrrolo[2,3-b]pyrid-5-yl)oxy)-5-fluoro-N-((7-(((4-fluoro-1-(2,2,2-trifluoroethyl)piperid-4-yl)methyl)amino)-6-nitro-1H-benzo[d]imidazol-4-yl)sulfonyl)-4-(2-(2-(2-isopropylphenyl)pyrrolidin-1-yl)-7-azaspiro[3.5]non-7-yl)benzamide]
< 10 | COc1ccc(CN2CCN(C3CC4(CCN(c5cc(Oc6cnc7[nH]ccc7c6)c(C(=O)NS(=O)(=O)c6cc([N+](=O)[O-])c(NCC7(F)CCOCC7)c7occc67)cn5)CC4)C3)[C@H](c3ccccc3C(C)C)C2)cc1 [compound 135, (R)-4-((1H-pyrrolo[2,3-b]pyrid-5-yl)oxy)-N-((7-(((4-fluorotetrahydro-2H-pyran-4-yl)methyl)amino)-6-nitrobenzofuran-4-yl)sulfonyl)-6-(2-(2-(2-isopropylphenyl)-4-(4-methoxybenzyl)piperazin-1-yl)-7-azaspiro[3.5]non-7-yl) nicotinamide]
< 10 | COc1ccc(CN2CCN(C3CC4(CCN(c5ccc(C(=O)NS(=O)(=O)c6cc([N+](=O)[O-])c(NCC7(F)CCOCC7)c7[nH]cnc67)c(N6CCOc7nc8[nH]ccc8cc76)c5)CC4)C3)C(c3ccccc3C(C)C)C2)cc1 (stereo not drawn) [compound 093, 2-(2,3-dihydropyrrolo[3′,2′:5,6]pyridino[2,3-b][1,4]oxazin-1 (6H)-yl)-N-((7-(((4-fluorotetrahydro-2H-pyran-4-yl)methyl)amino)-6-nitro-1H-benzo[d]imidazol-4-yl)sulfonyl)-4-(2-(2-(2-isopropylphenyl)-4-(4-methoxybenzyl)piperazin-1-yl)-7-azaspiro[3.5]non-7-yl)benzamide]
< 10 | COc1ccc(CN2CCN(C3CC4(CCN(c5ccc(C(=O)NS(=O)(=O)c6cc([N+](=O)[O-])c(NC[C@H]7CC[C@](C)(O)CC7)c7[nH]cnc67)c(Oc6cnc7[nH]ccc7c6)c5)CC4)C3)C(c3ccccc3C(C)C)C2)cc1 (stereo partly drawn) [compound 039, 2-((1H-pyrrolo[2,3-b]pyrid-5-yl)oxy)-N-((7-((((1r,4r)-4-hydroxy-4-methylcyclohexyl)methyl)amino)-6-nitro-1H-benzo[d]imidazol-4-yl)sulfonyl)-4-(2-(2-(2-isopropylphenyl)-4-(4-methoxybenzyl)piperazin-1-yl)-7-azaspiro[3.5]non-7-yl)benzamide]
